Molecules are shown by their SMILES.

The subject of data set [1] is DGAT. Briefly: Assay for inhibitory effect on DGAT in cell (intracellular triglyceride production from [14C]acetate in HepG2 cells). The data set is classed as cell-based, human. On the procedure: The effect of the benzazole derivatives of Chemical Formula 1 in accordance with the present invention on DGAT was examined with HepG2 cells, hepatic cells derived from the human liver, as follows.
HepG2 cells, purchased from ATCC, were cultured in Eagle's minimum essential medium (MEM), 2 mM L-glutamine, with Earle's balanced salt solution (BSS) adjusted to contain, 1.5 g/L sodium bicarbonate, 0.1 mM non-essential amino acids and 1 mM sodium pyruvate, supplemented with 10% fetal bovine serum (FBS) and 1% antibiotics (100 U/ml penicillin and 100 µg/ml streptomycin) at 37° C. in a 5% CO2 incubator.
Intracellular DGAT activity was represented by the amount of triglycerides produced in the cultured HepG2 cells while the compounds (4, 8, 10, 22, 24, 25, 26, 39 and 31) of Chemical Formula 1 were assayed for inhibitory activity against DGAT by measuring the change in intracellular triglyceride production after the addition thereof.
Cells were plated at a density of 1×10^6 cell/ml per well into 24-well plates and incubated for 24 hours. Then, the medium was exchanged with FBS-free MEM and pre-treated with samples for 1 hour. Thereafter, 0.2 mCi of [^14C]acetate (Amersham) was added as a substrate to the cells, followed by incubation for 1 hour. The production of triglyceride was catalyzed by DGAT so that DGAT activity was determined by the amount of the triglyceride product, which could be measured by radioactivity. For use, the samples were dissolved in dimethyl sulfoxide (DMSO). In a control, triglycerides were synthesized using DMSO without any sample, with the production yield thereof given as 100.
The amount of the glyceride products synthesized was determined as follows. After completion of synthesis, the cells were suspended in PBS (phosphate-buffer-saline) to remove the substrate [^14C]acetate, whether unabsorbed into the cells or remaining unreacted, and total lipids, including triglycerides, were extracted twice for 30 min with 0.5 ml of an extraction solvent mixture (hexane:isopropanol=3:2, v:v). 1 ml of the extract was concentrated with nitrogen gas.
The total lipid residue thus formed was dissolved in an organic solvent mixture (chloroform:methanol=2:1) and loaded dropwise onto a thin layer chromatography plate (TLC; silica gel 60F254, 0.5 mm, Merck) using a mixture of 80:20:1 hexane:diethylether:acetic acid (v:v:v) as a developing solvent. After the separation of triglycerides (Rf value: 0.4) on TLC, the plate was brought into contact with an autoradiographic film for three hours, followed by image analysis (BAS-1500, Fuji Photo Film Co. Ltd.) to determine the [^14C] radioactivity of the triglycerides. The cells left after the extraction were suspended in 0.3 ml of a 0.1 N sodium hydroxide solution to measure the cellular protein concentration thereof.
The empirical values were obtained by dividing triglyceride radioactivity by protein level, with correction for experimental errors between test groups.

Data set [2] concerns ICR mice fed a high-fat diet. Briefly: In vivo assay for anti-obesity activity in mice fed a high-fat diet. Also noted: species or system mouse. On the procedure:
Also, the derivatives of Chemical Formula 1 were tested for resistance to obesity by iterative oral administration at a dose of 10 mg/kg into ICR male mice (refer to Example 3). […] When they were administered, the levels of total triglycerides, total cholesterols, and low density lipoprotein (LDL)-cholesterol in the blood recovered to almost normal levels, with a significant increase observed in the level of high density lipoprotein (HDL)-cholesterol in the blood (refer to Tables 6 and 7 and FIGS. 3 and 4).
In order to verify the anti-obesity activity of the benzaldehyde derivatives of Chemical Formula 1 in accordance with the present invention, Compounds 22 and 31 were administered repetitively into rodents as follows.
The experimental animals were 6 week old ICR mice which were purchased from Japan SLC, Inc. via Central Lab. Animal Inc. Korea. They were acclimated to a new environment for one week before use, and fed with a foodstuff commercially available from Deyts, U.S.A. They were bred in an animal lab set at a temperature of 23±3° C. and RH 50±10% under light of 150˜300 Lux for a period of 12 hours (6 a.m.˜6 p.m.) with ventilation 10-20 times/hour. All of the 12 mice used were male, and were organized into two groups of 6. The test group was orally administered once a day at 4 p.m. with 10 mg/kg of the compound (Chemical Formula 1) in the form of a solution in biological saline for 35 days while the control was administered with biological saline only. Xenical, a commercially available lipase inhibitor, was administered orally at a dose of 10 mg/kg once a day as a positive control drug.
The animals were measured for body weight every week and sacrificed on Day 35, after which blood from the heart was sampled. Abdominal fat, epididymal fat, retroperitoneal fat and the liver were excised and weighed. Blood samples were assayed for total triglyceride, total cholesterol, HDL-cholesterol and LDL-cholesterol using respective test kits, all commercially available from Asan Pharmaceutical Co. Ltd., Korea.
For evidence of anti-obesity activity, compounds 22 and 31 were orally administered at regular intervals at a dose of 10 mg/kg into ICR male mice for a predetermined period of time with the concurrent provision of conditional diets thereto. Anatomized abdomens of the animals are given in the photographs of FIG. 2.

The subject of data set [3] is ICR mice. Briefly: Acute toxicity, oral administration for two weeks, mice. The data set is classed as in vivo. Particulars: oral 100 and 250 mg/kg for two weeks. As to the method: (§1) An assay of the benzazole derivatives of Chemical Formula 1 in accordance with the present invention was performed for acute toxicity on mice (20±5 g, Central Lab. Animal Inc.) and rats (235±10 g, Central Lab. Animal Inc.).
(§2) For this, ICR mice and Sprague-Dawley rats were assigned to 4 groups of 10 and orally administered with Compound 22 in doses of 100 and 250 mg/kg for two weeks.

Data set [4] relates to Sprague-Dawley rats. Briefly: Acute toxicity, oral administration for two weeks, rats. The class given is in vivo. Particulars: oral 100 and 250 mg/kg for two weeks. On the procedure:
as §1, §2

Where [5] appears, read: Day 35, high-fat diet, 10 mg/kg oral, Mean ± SD.
[6] abbreviates: blood, Day 35, high-fat diet, 10 mg/kg oral, Mean ± SD.

Take `O=C(NCc1ccco1)c1ccc2oc(COc3ccc(C45CC6CC(CC(C6)C4)C5)cc3)nc2c1` [Cpd. 22, 2-(4-adamantan-1-yl-phenoxymethyl)-benzoxazole-5-carboxylic acid (furan-2-ylmethyl)-amide]: in data set [1] (10 μM), the “inhibition of the biosynthesis of triglycerides” value is reported as 32.2%. For the same compound, the “Production Yield of Triglyceride (%)” value in data set [1] (final level 10 μM, DMSO control given as 100) was found to be 67.8 ± 7.2%. The “abdominal fat increment (FIG. 2)” value in data set [2] (10 mg/kg, compared to groups fed only the high-fat diet, final day) is “significantly decreased”. Besides, in data set [2] (setting [5]), the “(Tissue Weight/Body Weight) × 100 Abdominal Fat + Epididymal Fat” value was 3.97 ± 0.72, the “(Tissue Weight/Body Weight) × 100 Liver” value came out at 4.66 ± 0.65, the “(Tissue Weight/Body Weight) × 100 Retroperitoneal Fat” value was 1.24 ± 1.31 and the “(Tissue Weight/Body Weight) × 100 Total Fat” value is 5.24 ± 0.91. Also, in data set [2] (setting [6]), the “HDL-Cholesterol” value amounted to 21.66 ± 2.16 mg/dL, the “LDL-Cholesterol” value came to 37.57 ± 15.14 mg/dL, the “Total Cholesterol” value was 68.89 ± 14.95 mg/dL and the “Total Triglyceride” value was 48.33 ± 9.83 mg/dL. The “inhibition of body weight gain” value in data set [2] (high-fat diet, 10 mg/kg oral once a day for 35 days) is recorded as 68%. The “Body Weight (g) (Mean ± SD) Week 0” value in data set [2] (high-fat diet, 10 mg/kg oral once a day, Week 0) turned out to be 26.30 ± 1.27 g. Also, the “Body Weight (g) (Mean ± SD) Week 1” value in data set [2] (high-fat diet, 10 mg/kg oral once a day, Week 1) is reported as 34.75 ± 1.75 g. The “Body Weight (g) (Mean ± SD) Week 2” value in data set [2] (high-fat diet, 10 mg/kg oral once a day, Week 2) was 37.94 ± 2.33 g. In data set [2] (high-fat diet, 10 mg/kg oral once a day, Week 3), the “Body Weight (g) (Mean ± SD) Week 3” value turned out to be 40.34 ± 3.39 g. Moreover, the “Body Weight (g) (Mean ± SD) Week 4” value in data set [2] (high-fat diet, 10 mg/kg oral once a day, Week 4) stood at 42.48 ± 2.90 g. The “Body Weight (g) (Mean ± SD) Week 5” value in data set [2] (high-fat diet, 10 mg/kg oral once a day, Week 5) is listed as 43.90 ± 1.20 g. Further, in data set [3], the apparent symptoms entry is reported as “no apparent symptoms different from the control”. For the same compound, in data set [4], the apparent symptoms result is on record as “no apparent symptoms different from the control”.

Source of the values: US8304448B2, “Method for the treatment of metabolic disorder containing benzazole derivatives as an active ingredient” (Korea Research Institute of Bioscience and Biotechnology, priority 2006, dated 2012).
